Test results taken from US5284847A, “Thieno pyrazine diones, their preparation and use” (Novo Nordisk A/S, priority 1991, dated 1994).

Legend:
[1] = molecular target: T1, glycine site of the NMDA receptor complex (Rattus norvegicus, UniProt P35439); test: In vitro [3H]-Glycine Binding to Rat Brain Membranes (Test 1); design: species or system rat (male Wistar); settings: rat forebrain membranes, 4° C., 30 min, read-out: IC50, displacement of 50% of the specific binding of [3H]-glycine
T1 construct: Crude synaptic (P2) membranes are prepared from rat forebrains freshly dissected from male Wistar rats; from tissue; host or cells: forebrain of male Wistar rats, crude synaptic (P2) membranes, washed with Triton X-100
Experimental: The compounds according to the invention were tested as regards the affinity for one or more of the different types of excitatory amino acid receptors and studied in simple radioligand binding experiments. In essence, the method involves incubation of a particular selected radiolabelled ligand and the particular specific substance to be investigated with brain homogenates which contain the receptor. Measurement of receptor occupancy is made by determination of the specific radioactivity bound to the homogenate.
The glycine site binding activity of these compounds of the present invention can be illustrated by determining their capability for displacing radioactively labelled glycine from the glycine site.
The displacement activity of the compounds may be shown by determining the IC50 value which represents the concentration (μM) which causes a displacement of 50% of the specific binding of [^3 H)-glycine.
In vitro [^3 H]-Glycine Binding to Rat Brain Membranes (Test 1)
The membrane preparation and assay of specific [^3 H]-glycine binding is based upon methodology described by Haring et al. (1991) J. Neurochem. 57, 323-332 and Yoneda et al. (1991) J. Neurochem. 55, 237-244.
All steps are performed at 4° C. Buffers are prepared fresh each week from distilled, deionized water and filtered through sterile 0.2 μm membranes to eliminate artifacts due to microbial contamination. Crude synaptic (P2) membranes are prepared from rat forebrains freshly dissected from male Wistar rats and washed 4 times with low ionic strength buffer.,On the day of the assay these preparations are additionally washed with buffer containing a low concentration (0.08% g/g) of Triton X-100, and then twice more in the absence of this detergent. The procedure is aimed at the disruption of synaptic membrane vesicles and removal of endogenous amino acids.
Specific radioligand binding is measured by incubating membranes (400-600 μg/ml of protein) with […] [^3 H]-glycine in the presence or absence of 1mM of unlabelled glycine at 4° C. for 30 min. Free and bound ligand are separated by centrifugation. Each pellet is rinsed 2X and bound radioactivity measured by liquid scintillation counting. Test substances are substituted for unlabelled glycine in the assay.

[2] = system: convulsions induced by i.c.v. infusion of NMDA; test: Convulsions induced by i.c.v. infusion of NMDA (Test 2), time to onset of clonic seizures; assay type: in vivo, mouse (male NMRI); settings: i.c.v. co-infusion with NMDA, mice
Experimental: The glycine antagonists are co-infused with NMDA and their anticonvulsive effect is measured by determining a) the TVSO value which represents the dose (μg/kg) of the glycine antagonist that has to be infused per minute in order to increase time to onset of clonic seizures by 50%, b) the ED50 value which represents the dose (μg/kg) of the glycine antagonist that has to be infused per minute in order to protect 50% of the animals against clonic seizures for 150 seconds after the start of i.c.v. infusion.
Convulsions induced by i.c.v. infusion of NKDA (Test 2 & 3)
58.84 μg/ml ([…] in 2.5 μl) of NMDA (Sigma) dissolved in 0.9% NaCl is co-infused i.c.v. with a glycine antagonist at a speed of 5 μl/min. Infusion is performed through a cannula placed 1 mm posterior and 1 mm lateral to the Bregma point. The cannula is injected […] into the skull of male NMRI mice weighing 25 g (range 23-27 g). Placement and length of the cannula into the skull is fixed by a plate positioned 4.3 mm from the point of the cannula. The infusion is stopped after the appearance of clonic seizures in all extremities or 150 seconds after the start time of the infusion. At least 5 doses of each glycine antagonist are tested using 8 mice per dose.

| IC50 [1] [nM] | SMILES | TV50, dose infused per minute to increase time to onset of clonic seizures by 50% [2] [mg/kg] |
| --- | --- | --- |
| 180 | CCCc1c(Cl)sc2[nH]c(=O)c(=O)[nH]c12 [Example 10, 6-Chloro-7-propylthieno[2,3-b)pyrazine-2,3(1H,4H)-dione] | 0.0094 |
| 850 | O=c1[nH]c2scc(C3CC3)c2[nH]c1=O [Example 25, 7-Cyclopropylthieno(2,3-b]pyrazine-2,3(1H,4H)-dione] | 0.076 |
| 180 | O=c1[nH]c2scc(Br)c2[nH]c1=O [Example 38, 7-Bromothieno(2,3-b)pyrazine-2,3(1H,4H)-dione] | 0.0348 |

More lines, now with the values behind:

| SMILES | IC50 [1] [nM] | TV50, dose infused per minute to increase time to onset of clonic seizures by 50% [2] [mg/kg] |
| --- | --- | --- |
| Cc1csc2[nH]c(=O)c(=O)[nH]c12 [Example 2, 7-Methylthieno(2,3-b)pyrazine-2,3(1H,4H)-dione] | 1000 | 0.007 |
| Cc1sc2[nH]c(=O)c(=O)[nH]c2c1C#N [Example 6, 7-Cyano-6-methylthieno[2,3-b)pyrazine-2,3(1H,4H)-dione] | 1270 | 0.044 |
